Columns and labels:
PCSK9 [1] = assay: In vitro PCSK9 inhibition test: Western blot of PCSK9/ProPCSK9 in culture medium and cells of HepG2 cells; type: cell-based, human; settings: HepG2, 24 hours; for PCSK9 (in cells) / PCSK9 (in culture medium) / ProPCSK9 (in cells) / Total PCSK9 amount: percentage with respect to total amount of PCSK9 in the control; for total amount of PCSK9, dependence on the concentration added: 1.0 and 10 micro gram/mL; for total amount of PCSK9, dependence on the concentration added / amount of PCSK9 in the culture medium and the cells, as compared with the control: result in words
Description: HepG2 cells derived from human liver cancer (5×10^5 cells/mL, 0.25 mL/well) were seeded on a 48-well plate. Subject compounds: 1,11-O-o-methylbenzylidene-7-O-p-cyanobenzoyl-1,7,11-trideacetyl pyripyropene A (PRD125), 7-p-cyanobenzoyl-7-deacetyl pyripyropene A (PRD017), 7-O-p-cyanobenzoyl-1,11-di(O-isobutyryl)-1,7,11-trideacetyl pyripyropene A (PRD056), and comparative compounds: pyripyropene A (PPPA) and a known statin drug, atorvastatin (Atr), were each added to the wells at a predetermined concentration, and the cells were cultured in a serum-free medium at 37° C. for 24 hours. As a control, the cells were treated in wells in the absense of compound under similar conditions. After culturing, the culture medium and the cells were collected. PCSK9 in the culture medium and the cells was detected by Western blotting. Using an image analysis software (ImageLab), band intensity of the detected PCSK9 was quantified. The quantitative value of each band intensity was corrected based on the quantitative value of the band intensity of glyceraldehyde-3-phosphate dehydrogenase (GAPDH) that is a loading control for Western blotting. In the figure, FIG. 1A indicates the results of detecting PCSK9 and ProPCSK9 in the culture medium and the cells with PRD017 or PRD056 added, and FIG. 1B indicates the results of detecting PCSK9 and ProPCSK9 in the culture medium and the cells with PRD125, Atr, or PPPA added. In FIG. 2, FIG. 2A indicates the results with PRD017 added, FIG. 2B indicates the results with PRD056 added, and FIG. 2C indicates the results with PRD125 added, respectively. In FIG. 3, FIG. 3A indicates the results with Atr added, and FIG. 3B indicates the results with PPPA added, respectively. In the figures, the horizontal axis indicates the concentration of the compound (micro gram/mL) added, and the vertical axis indicates the total amount of PCSK9(%), respectively. The total amount of PCSK9 is a percentage with respect to the total amount of PCSK9 in the control. The values in Table 1 are percentages with respect to the total amount of PCSK9 in the control.

PCSK9 [2] = assay: In-vivo PCSK9 inhibition test in high-fat-diet-fed mice; parameters: species or system mice (C57BL/6J); settings: 10 mg/kg body weight/day in HFD for 8 weeks, versus control group
Description: Female and male mice (C57BL/6J) were fed with high-fat diet (HFD) for 4 weeks. The mice were grouped into the control group, the PPPA-administered group and PRD125-administered group (N=20 for males and N=20 for females in each group). The PPPA-administered group and the PRD125-administered group were fed with HFD with each subject compound or a comparative compound added for 8 weeks. The control group was fed only with HFD for 8 weeks. The PPPA was administered at a dose of 50 mg/kg body weight/day, and the PRD125 was administered at a dose of 10 mg/kg body weight/day, respectively. After the completion of the administration period, the blood was collected and the liver was extracted under anesthesia, from the mice of each group. The amount of LDL-cholesterol and the amount of PCSK9 in the blood, and the amount of total cholesterol, the amount of cholesteryl ester, and the amount of triglyceride in the liver were measured. The averages and the standard deviations of the measured values in each group were calculated. Further, the p values for the values of the PPPA-administered group and the PRD125-administered group with respect to the value of the control group were calculated by the student t-test. […]

| Molecule | PCSK9 (in cells) (PCSK9 [1]; 1.0 micro gram/mL) | PCSK9 (in culture medium) (PCSK9 [1]; 1.0 micro gram/mL) | ProPCSK9 (in cells) (PCSK9 [1]; 1.0 micro gram/mL) | Total PCSK9 amount (PCSK9 [1]; 1.0 micro gram/mL) | amount of PCSK9 in the culture medium with respect to the amount of PCSK9 in the culture medium of the control (PCSK9 [1]; 10 micro gram/mL) | amount of ProPCSK9 in the cells with respect to the amount of ProPCSK9 in the cells of the control (PCSK9 [1]; 10 micro gram/mL) | PCSK9 (in cells) (PCSK9 [1]; 10 micro gram/mL) | PCSK9 (in culture medium) (PCSK9 [1]; 10 micro gram/mL) | ProPCSK9 (in cells) (PCSK9 [1]; 10 micro gram/mL) | Total PCSK9 amount (PCSK9 [1]; 10 micro gram/mL) | total amount of PCSK9, dependence on the concentration added (PCSK9 [1]) | amount of PCSK9 in the blood (PCSK9 [2]; HFD-fed male and female mice) | amount of triglyceride in the liver and the blood (PCSK9 [2]; HFD-fed mice) | amount of PCSK9 in the culture medium and the cells, as compared with the control (PCSK9 [1]) | amount of PCSK9 in the cells with respect to the amount of PCSK9 in the cells of the control (PCSK9 [1]; 10 micro gram/mL) |
| --- | --- | --- | --- | --- | --- | --- | --- | --- | --- | --- | --- | --- | --- | --- | --- |
| 7-O-p-cyanobenzoyl-1,11-di(O-isobutyryl)-1,7,11-trideacetyl pyripyropene A [PRD056] | 27.2% | 21.1% | 8.1% | 56.4% | 30% | 44.8% | 34.5% | 15.2% | 6.4% | 56.1% | decreased depending on the concentration added | – | – | – | – |
| Cc1ccccc1[C@@H]1OCC2(C)C3C[C@H](OC(=O)c4ccc(C#N)cc4)[C@@]4(C)Oc5cc(-c6cccnc6)oc(=O)c5[C@H](O)C4[C@@]3(C)CC[C@@H]2O1 (stereo partly shown) [PRD125, 1,11-O-o-methylbenzylidene-7-O-p-cyanobenzoyl-1,7,11-trideacetyl pyripyropene A] | 20.7% | 23.0% | 12.8% | 56.5% | 41.6% | – | 23.6% | 20.7% | 10.4% | 54.7% | decreased depending on the concentration added | significantly reduced | markedly reduced | – | – |
| CC(=O)OC[C@@]1(C)[C@@H]2C[C@H](OC(C)=O)[C@@]3(C)Oc4cc(-c5cccnc5)oc(=O)c4[C@H](O)[C@@H]3[C@@]2(C)CC[C@@H]1OC(C)=O [PPPA, pyripyropene A, reference compound] | 35.7% | 45.2% | 35.7% | 116.6% | – | – | 38.4% | 31.7% | 19.7% | 89.8% | – | – | – | no significant difference | – |
| CC(=O)OCC1(C)[C@@H](OC(C)=O)CC[C@]2(C)[C@H]3[C@@H](O)c4c(cc(-c5cccnc5)oc4=O)O[C@]3(C)[C@@H](OC(=O)c3ccc(C#N)cc3)C[C@@H]12 (stereo partly shown) [PRD017, 7-p-cyanobenzoyl-7-deacetyl pyripyropene A] | 40.3% | 28.3% | 11.7% | 80.3% | 44% | 46% | 29.4% | 22.0% | 6.6% | 58% | decreased depending on the concentration added | – | – | – | – |
| CC(C)c1c(C(=O)Nc2ccccc2)c(-c2ccccc2)c(-c2ccc(F)cc2)n1CC[C@@H](O)C[C@@H](O)CC(=O)O [Atr, atorvastatin, reference compound] | 49.4% | 129.3% | 90.0% | 268.7% | 273.8% | 682.5% | 63.2% | 136.1% | 97.6% | 296.8% | – | – | – | rather increased | 175.6% |
